Experimental data reported in PMC10151572, “The identification of viral ribonucleotide reductase encoded by ORF23 and ORF141 genes and effect on CyHV-2 replication” (Frontiers in Microbiology, 2023).

Columns and labels:
[1] = target: T1, CyHV-2 RR (ORF23-GST + ORF141-His) (Cyprinid herpesvirus 2, UniProt K7PBF0+K7PBQ3); experiment: RR activity, dCDP formation by HPLC after borate column; format: biochemical; details: CDP 80 μM with ATP 2.7 mM, dATP, dTTP, dGTP, UDP, ADP, GDP; both subunits needed; 50 mM HEPES-KOH, 5 mM MgCl2, 50 mM DTT, 20 mM ferrous ammonium sulfate; 1 h at 4°C
T1 construct: gene CyHV2_ORF23; recombinant ORF23-GST and ORF141-His mixed in vitro; RR described in general as two homodimers (alpha2beta2)

[2] = target: T1, CyHV-2 RR (ORF23-GST + ORF141-His); experiment: as above; format: biochemical; details: hydroxyurea 80 μM; 10 μg of both recombinant proteins; CDP 80 μM, ATP 2.7 mM, other nucleotides; 50 mM HEPES-KOH, 5 mM MgCl2, 50 mM DTT, 20 mM ferrous ammonium sulfate; 1 h at 4°C

Row | Structure (SMILES) | RR activity, dCDP formation by HPLC after borate column [1] | % activity reduction at 80 μM [2]
1 | Nc1ccn([C@@H]2O[C@H](COP(=O)(O)OP(=O)(O)O)[C@@H](O)[C@H]2O)c(=O)n1 [CDP] | interaction between ORF23-GST and ORF141-His proteins is essential for catalyzing the reduction of CDP to | –
2 | NC(=O)NO [hydroxyurea] | – | 52%
